The values that follow come from US20140341895A1, “PSEUDOMONAS AERUGINOSA OprM EPITOPES FOR USE IN DIAGNOSTICS AND THERAPEUTICS” (priority 2011, published 2014).

No end group written: not given here.

The subject of one assay is OprM outer loops. The assay is described as follows: rabbit immunization with KLH-conjugated OprM outer loop peptides, sera screened for immune reaction. The assay is classed as in vivo. As to conditions: NZW rabbits, 500 μg per injection subcutaneously on days 0, 21, 42, 63, 84, 105; sera screened for immune reaction to OprM outer loops. The protocol: Polyclonal antibodies were produced using each of the OprM outer loops (with surrounding amino acid residues) conjugated to KLH as immunogens. Rabbits were screened prior to antigen injection for background antibodies that recognize the OprM outer loop immunogens to be used (i.e., SEQ ID NOS:3 and 4). Pre-immune rabbit sera was assayed by ELISA for antibodies to the immunogen.
Eight NZW rabbits were immunized on days 0, 21, 42, 63, 84 and 105 subcutaneously with either KLH-conjugated OprM outer loop 1 (SEQ ID NO:3) or outer loop 2 (SEQ ID NO:4) peptides (500 μg per injection). The Day 0 injection was formulated with Titermax while all subsequent injections were formulated with Freund's incomplete adjuvant. The rabbits were bled on days 52 (5 ml serum obtained), 73 (20 ml serum obtained), 94 (20 ml serum obtained), 115 (20 ml serum obtained) and 118 (50 ml serum obtained).

For assay [1], the target named is T1, OprM outer loop 1 (SEQ ID NO:3) (Pseudomonas aeruginosa, UniProt Q51487).
T1 construct: made in house; host or cells: chemical peptide synthesis
T1 sequence (Q51487 whole entry, looked up): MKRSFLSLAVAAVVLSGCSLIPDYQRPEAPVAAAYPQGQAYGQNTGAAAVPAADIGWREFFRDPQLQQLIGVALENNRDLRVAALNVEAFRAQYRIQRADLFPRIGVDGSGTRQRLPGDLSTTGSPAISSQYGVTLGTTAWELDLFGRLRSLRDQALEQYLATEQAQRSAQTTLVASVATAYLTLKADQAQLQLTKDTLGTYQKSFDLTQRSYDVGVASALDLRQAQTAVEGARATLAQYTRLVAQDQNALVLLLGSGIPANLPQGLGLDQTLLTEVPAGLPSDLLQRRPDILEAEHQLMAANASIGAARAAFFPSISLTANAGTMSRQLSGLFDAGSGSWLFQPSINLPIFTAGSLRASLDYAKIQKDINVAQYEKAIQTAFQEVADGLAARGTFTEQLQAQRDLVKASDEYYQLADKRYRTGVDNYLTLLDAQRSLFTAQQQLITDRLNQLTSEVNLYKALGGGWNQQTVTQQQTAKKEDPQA
The assay can be described thus: ELISA of immunized rabbit sera, antigen outer loop 1 peptide. The assay is classed as binding. As to conditions: antigen SEQ ID NO:3; four rabbits per immunogen; FIG. 1 and 2. The protocol: (§1) Sera was assayed by ELISA to measure the amount of anti-OprM antibodies that were induced by the immunization. Purified peptide from either outer loop 1 or outer loop 2 was plated each well of a 96-well plate. A solution of PBS+3% BSA was used for non-specific blocking and sample/control/secondary antibody dilutions. The sample serum was run against a negative control (normal sera) and a positive control (anti-ovalbumin). The signal was detected using HRP conjugated anti-rabbit secondary antibodies and ABTS peroxidase substrate system. The plates were read at a wavelength of 415 nm with a reference at 570 nm.
In general terms: ELISA stands for enzyme-linked immunosorbent assay.

Assay [2] concerns the target T2, OprM outer loop 2 (SEQ ID NO:4) (Pseudomonas aeruginosa, UniProt Q51487).
T2 construct: made in house; host or cells: chemical peptide synthesis
T2 sequence (Q51487 whole entry, looked up): T1 sequence (Q51487 whole entry, looked up)
The assay is described as follows: ELISA of immunized rabbit sera, antigen outer loop 2 peptide. The assay is classed as binding. As to conditions: antigen SEQ ID NO:4; four rabbits per immunogen; FIG. 1 and 2. The protocol: as §1

The subject of assay [3] is P. aeruginosa strain MSC06120. As to conditions: multidrug resistant P. aeruginosa strain MSC06120; stated as normal values; cited from earlier work.

For “outer loop 2 (SEQ ID NO:4): OprM outer loop 2 peptide with surrounding residues (SEQ ID NO:4), N-terminal CKK added, conjugated to keyhole limpet hemocyanin carrier (CKKSRQLSGLFDAGSG; also: conjugated to KLH carrier, site not given here; listed as Pseudomonas aeruginosa)”, the “immune response in immunized rabbits” value in the assay with OprM outer loops is “generated an immune response”. The “antibodies in sera binding to peptide containing outer loop 1 (titer / cross-reactivity), ELISA” value in assay [1] is listed as 2 rabbits showed a small amount of cross-reactivity. Moreover, the “antibodies in sera binding to peptide containing outer loop 2 (titer / cross-reactivity), ELISA” value in assay [2] is on record as “high titer”.
With `NCC[C@H](O)C(=O)N[C@@H]1C[C@H](N)[C@@H](O[C@H]2O[C@H](CN)[C@@H](O)[C@H](O)[C@H]2O)[C@H](O)[C@H]1O[C@H]1O[C@H](CO)[C@@H](O)[C@H](N)[C@H]1O` [amikacin], the growth inhibitory concentration in assay [3] was 64 µg/mL.
Turning to `O=C(O)c1cn(C2CC2)c2cc(N3CCNCC3)c(F)cc2c1=O` [ciprofloxacin], in assay [3], the growth inhibitory concentration is above 256 µg/mL.
With “KLH-conjugated OprM outer loop 1 (SEQ ID NO:3): OprM outer loop 1 peptide with surrounding residues (SEQ ID NO:3), N-terminal CKK added, conjugated to keyhole limpet hemocyanin carrier (CKKRLPGDLSTTGSPA; also: conjugated to KLH carrier, site not given here; listed as Pseudomonas aeruginosa)”, the “immune response in immunized rabbits” value in the assay with OprM outer loops was “generated an immune response”. The “antibodies in sera binding to peptide containing outer loop 1 (titer / cross-reactivity), ELISA” value in assay [1] is listed as “high titer”. Further, the “antibodies in sera binding to peptide containing outer loop 2 (titer / cross-reactivity), ELISA” value in assay [2] was 1 rabbit showed a small amount of cross-reactivity.
